From patent US10202342B2, “Targeted delivery of imaging probes for in vivo cellular imaging” (University of Maryland, Baltimore, priority 2008, dated 2019)

System: cells
Assay: Intracellular retention of nitroxides (FIG. 7)
Format: cell-based
Excerpt: The exponential life time (τ) is related to the half-life (t½): t½=0.693τ.
It is evident that nitroxide has a significant increase in retention time and approximately a 4-fold improvement over nitroxide and a 12 fold increase over nitroxide.

CC1(C)CC(CN(CC(=O)O)CC(=O)O)C(C)(C)N1[O] (stereo not drawn) [nitroxide [3], (2,2,5,5-tetramethylpyrrolidin-1-oxyl-3-ylmethyl)amine-N,N-diacetic acid]
intracellular retention life time (single-exponential fits), comparison in words (FIG. 7, nitroxides [1]-[3] compared): longest life time within the cells
intracellular retention time, improvement over nitroxide [2] (FIG. 7, retention within cells): ~4 fold
intracellular retention time, increase over nitroxide [1] (FIG. 7, retention within cells): ~12 fold
